EP0074229A1, “Triazole gastric anti-secretory agents” (PFIZER INC., priority 1981, dated 1983)

Columns and labels:
[1] = tested on: gastric acid secretion; test: gastric antisecretory activity in pentagastrin-stimulated Heidenhain pouch dogs; type: in vivo; conditions: conscious Heidenhain pouch dogs, pentagastrin infusion, drug given intravenously; for inhibition in vivo at up to 10 mg/kg: Canis lupus familiaris, iv, doses of 10 mg/kg or less, lowest acid output after drug vs mean output before drug; for inhibition of acid: dosage of 1 mg/kg
Description: The activity of the compounds of the present invention as antisecretory agents and histamine-H2 antagonists may be determined by standard pharmacological tests, including for example (1) measuring their ability to antagonize the actions of histamine which are not blocked by an antihistamine such as mepyramine and (2) measuring their ability to inhibit gastric acid secretion in the stomachs of Heidenhain pouch dogs that had previously been treated with pentagastrin in order to stimulate the secretion of gastric acid.
The gastric antisecretory activity of compounds of the present invention was determined in overnight fasted, conscious Heidenhain pouch dogs. Pentagastrin (Peptavlon-Ayerst) was used to stimulate acid output by continuous infusion into a superficial leg vein at doses earlier determined to stimulate near maximal acid output from the gastric pouch. Gastric juice was collected at 30 minute intervals following the start of a pentagastrin infusion and measured to the nearest 0.1 ml. Ten collections were taken for each dog during an experiment. Acid concentration was determined by titrating 1.0 ml of gastric juice to pH 7.4 with 0.1N sodium hydroxide using an Autoburette and a glass electrode pH meter (Radiometer).
[…] Gastric acid . antisecxetory effects were calculated by comparing the lowest acid output after drug administration with the mean acid output immediately before drug.

[2] = biological target: T1, H2-receptor (Cavia porcellus, UniProt P47747); test: histamine-H2 antagonist activity in isolated guinea pig right atria (histamine dose-response, dose-ratios, pA2); type: cell-based, Guinea pigs; conditions: antagonism of histamine-stimulated atrial rate, Krebs-Henseleit buffer pH 7.4, 32°
T1 construct: from tissue; host or cells: isolated guinea pig right atria
Method: The histamine-H2 antagonist activity of compounds of the present invention was determined by the following procedure: • Guinea pigs are killed rapidly with a blow to the head, the heart removed and the right atria dissected free. […] Individual atrial contractions are followed with a force-displacement transducer connected to a cardiotachometer and Grass polygraph recorder. After obtaining a dose-response curve to histamine, the bath containing each atrium is flushed several times with fresh buffer and the atria re-equilibrated to basal rates. Following the return to basal rate, test compounds are added at selected final concentrations and the histamine dose-response curve is again determined in the presence of antagonist. Results are-expressed as dose-ratios, the ratio of histamine concentrations required to produce one-half of maximal stimulation in the presence and absence of antagonist, and the apparent dissociation constant of the H2-receptor antagonist pA2 is determined.

T1 sequence (P47747 whole entry): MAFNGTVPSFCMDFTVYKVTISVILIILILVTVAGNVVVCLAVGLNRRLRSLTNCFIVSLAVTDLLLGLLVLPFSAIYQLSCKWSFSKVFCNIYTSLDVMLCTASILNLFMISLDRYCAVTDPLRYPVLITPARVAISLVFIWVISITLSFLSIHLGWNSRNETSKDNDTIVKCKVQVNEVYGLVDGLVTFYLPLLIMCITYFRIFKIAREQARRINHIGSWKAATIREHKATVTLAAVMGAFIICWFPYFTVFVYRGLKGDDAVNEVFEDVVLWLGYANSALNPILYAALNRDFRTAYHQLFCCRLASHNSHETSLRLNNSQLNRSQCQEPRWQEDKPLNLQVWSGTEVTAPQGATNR

SMILES: CNc1cc(-c2nc(C)n[nH]2)ccn1 [Example 2, 3'-Methyl-5'-(2-methylamino-4-pyridyl)-1',2',4'-triazole]
- inhibition in vivo at up to 10 mg/kg [1]: > 50%

SMILES: CCNc1cc(-c2nc(C)n[nH]2)ccn1 [Example 3, 3'-Methyl-5'-(2-ethylamino-4-pyridyl)-1',2',4'-triazole]
- inhibition in vivo at up to 10 mg/kg [1]: > 50%
- Kb [2]: ≤ 1000 nM

SMILES: CCNc1cc(-c2nc(CC)n[nH]2)ccn1 [Example 6, 3'-Ethyl-5'-(2-ethylamino-4-pyridyl)-1',2',4'-triazole hemi-hydrate]
- Kb [2]: ≤ 1000 nM

SMILES: CCNc1cc(-c2nc(CO)n[nH]2)ccn1 [Example 8, 3'-Hydroxymethyl-5'-(2-ethylamino-4-pyridyl)-l',2',4'-triazole]
- inhibition in vivo at up to 10 mg/kg [1]: > 50%

SMILES: CCNc1cc(-c2nc(CCNC(=O)C=Cc3cnc(C)s3)n[nH]2)ccn1 [Example 12, N-[3-(2-methyl-5-thiazolyl)acryloyl]-2-[3'-(5'-(2-ethylamino-4-pyridyl)-1',2',4'-triazolyl)]ethylamine]
- inhibition in vivo at up to 10 mg/kg [1]: > 50%
- inhibition of acid [1]: greater than 50%
- Kb [2]: ≤ 1000 nM

SMILES: CCNc1cc(-c2nc(CCNC(=O)COc3ccccc3)n[nH]2)ccn1 [Example 17, N-Phenoxyacetyl-2-(3'-(5'-(2-ethylamino-4-pyridyl)-1',2',4'-triazolyl))'ethylamine hemihydrate]
- inhibition in vivo at up to 10 mg/kg [1]: > 50%

SMILES: CCNc1cc(-c2n[nH]c(CCNC(=O)CCc3ccccc3)n2)ccn1 [Example 20, N-(3-Phenylpropionyl)-2-(3'-(5'-(2-ethylamino-4-pyridyl)-1',2',4'-triazolyl))ethylamine]
- inhibition in vivo at up to 10 mg/kg [1]: > 50%

SMILES: CCNc1cc(-c2n[nH]c(CCNC(=O)COc3cccnc3)n2)ccn1 [Example 21, N-(3-Pyridyloxyacetyl)-2-(3'-(5'-(2-ethylamino-4-pyridyl)-1',2',4'-triazolyl))ethylamine bishydrate]
- inhibition in vivo at up to 10 mg/kg [1]: > 50%

SMILES: CCNc1cc(-c2n[nH]c(CCNC(=O)c3ccc(O)nc3)n2)ccn1 [Example 24, N-(6-Hydroxynicotinoyl)-2-(3'-(5'-(2-ethylamino-4-pyridyl)-1',2',4'-triazolyl))ethylamine monohydrate]
- inhibition in vivo at up to 10 mg/kg [1]: > 50%

SMILES: CCNc1cc(-c2n[nH]c(CCNC(=O)c3cccc(OC)c3)n2)ccn1 [Example 26, N-(3-Methoxybenzoyl)-2-(3'-(5'-(2-ethylamino-4-pyridyl)-1',2',4'-triazolyl))ethylamine]
- inhibition in vivo at up to 10 mg/kg [1]: > 50%

SMILES: CCNc1cc(C(=O)NCCc2nc(-c3ccnc(NCC)c3)n[nH]2)ccn1 [Example 27, N-(2-Ethylaminoisonicotinoyl)-2-(3'-(5'-(2-ethylamino-4-pyridyl)-1',2',4'-triazolyl))ethylamine]
- inhibition in vivo at up to 10 mg/kg [1]: > 50%

SMILES: CCNc1cc(-c2n[nH]c(CCNC(=O)c3ccc(CN(C)C)o3)n2)ccn1 [Example 28]
- Kb [2]: ≤ 1000 nM

SMILES: CCNc1cc(-c2n[nH]c(CCNC(=O)c3csc(N=C(N)N)n3)n2)ccn1 [Example 29]
- Kb [2]: ≤ 1000 nM

SMILES: CCNc1cc(-c2n[nH]c(CCNC(=O)CCc3cccnc3)n2)ccn1 [Example 31, N-(3-Pyridylpropionoyl)-2-(3'-(5'-(2-ethylamino-4-pyridyl)-1',2',4'-triazolyl))ethylamine]
- inhibition in vivo at up to 10 mg/kg [1]: > 50%
- Kb [2]: ≤ 1000 nM

SMILES: CCNc1cc(-c2n[nH]c(CCNC(=O)c3cccnc3)n2)ccn1 [Example 34, N-Nicotinoyl-2-(3'-(5'-(2-ethylamino-4-pyridyl)-1',2',4'-triazolyl))ethylamine]
- Kb [2]: ≤ 1000 nM

SMILES: CCNc1cc(-c2n[nH]c(CCNC(=O)c3ccncc3)n2)ccn1 [Example 35, N-(Isonicotinoyl)-2-(3'-(5'-(2-ethylamino-4-pyridyl)-1',2',4'-triazolyl))ethylamine]
- inhibition in vivo at up to 10 mg/kg [1]: > 50%

SMILES: CCNc1cc(-c2n[nH]c(CCNC(N)=O)n2)ccn1 [Example 36, N-(2-(3'-(5'-(2-Ethylamino-4-pyridyl)-1',2',4'-triazolyl))-ethyl)urea hydrate]
- inhibition in vivo at up to 10 mg/kg [1]: > 50%

SMILES: CCNc1cc(-c2n[nH]c(CCNC(=NC#N)NC)n2)ccn1 [Example 39, N-Cyano-N'-(2-(3'-(5'-(2-ethylamino-4-pyridyl)-1',2',4'-triazolyl))ethyl)-N"-methylguanidine]
- Kb [2]: ≤ 1000 nM

SMILES: CCNc1cc(-c2n[nH]c(CCNC(=S)NC)n2)ccn1 [Example 41, N'-(2-(3'-(5'-(2-Ethylamino-4-pyridyl)-1',2',4'-triazolyl))-ethyl)-N'-methylthiourea]
- inhibition of acid [1]: greater than 50%
- Kb [2]: ≤ 1000 nM
